The test system of data set [1] is C3H/HeJ mice. As to conditions: maximum tolerated dose at day 40, C3H/HeJ mice.
Data set [2] relates to MTG-B mouse mammary Adenocarcinoma. Kind of data set: In vivo efficacy in C3H/HeJ mice bearing MTG-B tumors. Conditions: for T (Surviving days after treatment of MTG-B mouse mammary Adenocarcinoma In C3H/Hej mice): i.p., control mice survived 6 days; for CD/Taxol: ratio of extra days of survival with compound to extra days of survival with taxol, each compared to control; for T/C %: surviving days treated / surviving days control x 100%, control 6 days. How it is done: This example provides directions for performing in vivo efficacy tests of the compounds of the invention on C3H/HeJ mice bearing MTG-B tumors.
Studies on the compounds of this invention were performed on C3H/HeJ mice bearing […] tumors. […] Treatment was initiated at that time, with the first day of treatment designated as day 0 for calculation and plots. The mice were injected i.p. with thee drug dose levels (⅓, ½, 1×MTD) using both a single injection and the schedule of Q2D×3 (every 2 days for a total of 3 treatments at ⅓ MTD). Control groups of mice bearing 8 mm diameter tumors were treated with vehicle alone. […] When a tumor reached 1.5 g, the mouse bearing the tumor was euthanized. Surviving days measured from day 0 for mice treated with anticancer drugs (T) and surviving days measured from day 0 for control mice (C) were recorded. Tumor growth inhibition values (T/C %) were calculated using the formula T/C %=(surviving days of mice treated with an anticancer drug T/surviving days of control mice C)×100%, as shown in Table II.
The final right-hand column in Table II provides a ratio of the extra days of survival of mice treated with the compounds of the invention (compared to control) to the extra days of survival of mice treated with taxol (compared to control).

In data set [3] the test system is HCT116. Briefly: Cell colony formation assay, HCT116 cells. Format: cell-based, human. Conditions: 72 hours drug exposure.
The test system of data set [4] is VM46. Kind of data set: Cell colony formation assay, VM46 cells. The class given is cell-based. As to conditions: 72 hours drug exposure.
The subject of data set [5] is PC-3. Kind of data set: Cell colony formation assay, PC-3 cells. The class given is cell-based, human. Conditions: 72 hours drug exposure.

Take `CCC1(OC(=O)COc2ccc3c(c2)OCO3)C(=O)OCc2c1cc1n(c2=O)Cc2cc3ccccc3nc2-1` (centres unmarked) [Example 000419, Camptothecin-20-O-ester of 3,4-methylenedioxyphenoxyacetic acid]: the “In Vivo Toxicity MTD40 (ip, mg/kg) in C3H/Hej Mice” value in data set [1] is 45 mg/kg. Also, the “T (Surviving days after treatment of MTG-B mouse mammary Adenocarcinoma In C3H/Hej mice)” value in data set [2] was 12 days. For the same molecule, the CD/Taxol in data set [2] turned out to be 2.0. In data set [2], this molecule yielded a T/C % of 200%. The “In Vitro Efficacy: Survival (%) of HCT116” value in data set [3] (1 nM) is 100%; in data set [3] (10 nM) it was 0%; in data set [3] (100 nM) it was 0%. In addition, the “In vitro efficacy: Survival (%) of cells line VM46” value amounted to 75.46% in data set [4] (1 nM) and 0% in data set [4] (10 nM). In addition, the “In vitro efficacy: Survival (%) of cells line PC-3” value in data set [5] (1 nM) turned out to be 88.43%; in data set [5] (5 nM) it was 43.94%.
`CC[C@@]1(OC(=O)CO[C@@H]2C[C@H](C)CC[C@H]2C(C)C)C(=O)OCc2c1cc1n(c2=O)Cc2cc3ccccc3nc2-1` [Example 0002031, Camptothecin-20-O-ester of (−)-menthoxyacetic acid]: the “In Vivo Toxicity MTD40 (ip, mg/kg) in C3H/Hej Mice” value in data set [1] is reported as 100 mg/kg. The “T (Surviving days after treatment of MTG-B mouse mammary Adenocarcinoma In C3H/Hej mice)” value in data set [2] is reported as 12 days. Further, the CD/Taxol in data set [2] was 2.0. The molecule also returned a T/C % in data set [2] of 200%. The figures for the “In Vitro Efficacy: Survival (%) of HCT116” value in data set [3] (1 nM), in data set [3] (10 nM) and in data set [3] (100 nM) were 100%, 0% and 0%, respectively. The entries for the “In vitro efficacy: Survival (%) of cells line VM46” value in data set [4] (1 nM) and in data set [4] (10 nM) were 74.84% and 0%, respectively. Also, the “In vitro efficacy: Survival (%) of cells line PC-3” value in data set [5] (1 nM) is 100%; in data set [5] (5 nM), 69.44%.
As for `CC(=O)O[C@H]1C(=O)[C@@]2(C)[C@H]([C@H](OC(=O)c3ccccc3)[C@]3(O)C[C@H](OC(=O)[C@H](O)[C@@H](NC(=O)c4ccccc4)c4ccccc4)C(C)=C1C3(C)C)[C@]1(OC(C)=O)CO[C@@H]1C[C@@H]2O` [Taxol, reference compound], the “In Vivo Toxicity MTD40 (ip, mg/kg) in C3H/Hej Mice” value in data set [1] is given as 40.6 mg/kg. In data set [2], the “T (Surviving days after treatment of MTG-B mouse mammary Adenocarcinoma In C3H/Hej mice)” value is recorded as 9 days. In data set [2], the T/C % was found to be 150%. Moreover, the figures for the “In Vitro Efficacy: Survival (%) of HCT116” value in data set [3] (1 nM), in data set [3] (10 nM) and in data set [3] (100 nM) were 86.40%, 0% and 0%, respectively. The “In vitro efficacy: Survival (%) of cells line VM46” value turned out to be 80.59% in data set [4] (1 nM) and 70.82% in data set [4] (10 nM). The “In vitro efficacy: Survival (%) of cells line PC-3” value in data set [5] (1 nM) came out at 82.80%; in data set [5] (5 nM) it was 41.36%.

(Values after patent USRE39707E1, “Camptothecin derivatives” (Catholic Healthcare West, priority 2001, dated 2007).)
